Experimental data taken from ChEMBL document CHEMBL5725522, “Inhibitors of bruton's tyrosine kinase” (2017).

Target: Tyrosine-protein kinase BTK (Homo sapiens, UniProt Q06187)
Experiment: TR-FRET (Time Resolved FRET) Assay: This BTK competition assay measures compound potency (IC50) for the inactivated state of Bruton's Tyrosine Kinase using FRET (Förster/Fluorescence Resonance Energy Transfer) technology. The BTK-Eu complex was incubated on ice one hour prior to use at a starting concentration of 50 nM BTK-Bioease: 10 nM Eu-streptavidin (Perkin-Elmer Catalog#AD0062). The assay buffer consisted of 20 mM HEPES (pH 7.15), 0.1 mM DTT, 10 mM MgCl2, 0.5 mg/ml BSA with 3% Kinase Stabilizer (Fremont Biosolutions, Catalog #STB-K02). After 1 h, the reaction mixture from above was diluted 10 fold in assay buffer to make 5 nM BTK: 1 nM Eu-Streptavidin complex (donor fluorophore). 18 μl of a mixture of 0.11 nM BTK-Eu and 0.11 nM Kinase Tracer 178 (Invitrogen, Catalog #PV5593,) with BTK-Eu alone as no negative control, was then dispensed into 384-well flat bottom plates (Greiner, 784076). Compounds to be tested in assay were prepared as 10× concentrations and serial dilution in half-log increments was performed in DMSO so as to generate 10 point curves. […]

Chain of Tyrosine-protein kinase BTK (Q06187 whole entry): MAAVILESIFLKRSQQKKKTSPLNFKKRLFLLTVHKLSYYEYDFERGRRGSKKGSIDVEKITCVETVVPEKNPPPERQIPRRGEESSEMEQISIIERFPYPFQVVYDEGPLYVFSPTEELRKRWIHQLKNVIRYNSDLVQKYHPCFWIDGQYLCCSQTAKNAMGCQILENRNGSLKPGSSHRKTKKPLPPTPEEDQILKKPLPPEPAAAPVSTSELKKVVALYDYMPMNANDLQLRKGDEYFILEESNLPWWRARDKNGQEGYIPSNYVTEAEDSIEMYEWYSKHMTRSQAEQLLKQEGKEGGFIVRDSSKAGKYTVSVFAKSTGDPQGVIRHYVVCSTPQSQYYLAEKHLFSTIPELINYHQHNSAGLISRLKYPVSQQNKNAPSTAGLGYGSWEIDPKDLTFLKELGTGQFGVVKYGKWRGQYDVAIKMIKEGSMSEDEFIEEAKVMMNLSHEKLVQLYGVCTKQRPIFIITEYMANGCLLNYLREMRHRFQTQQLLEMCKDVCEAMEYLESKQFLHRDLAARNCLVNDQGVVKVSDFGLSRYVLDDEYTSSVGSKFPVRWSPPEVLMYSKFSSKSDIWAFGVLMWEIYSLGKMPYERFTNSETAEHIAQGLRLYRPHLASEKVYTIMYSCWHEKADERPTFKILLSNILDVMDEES

| IC50 | Structure (SMILES) |
| --- | --- |
| > 100000 nM | O=C(c1cc2cc(C(=O)N3CCOCC3)ccc2[nH]1)c1cnn2c1[nH]c(=O)c1cc(Oc3cccc(F)c3F)ccc12 |
| 2.9 nM | CN1CCC(NC(=O)c2ccc3[nH]c(C(=O)c4cnn(-c5ccc(Oc6ccccc6C(=O)N(C)C)cc5Cl)c4N)cc3c2)C1 (configuration not stated) |
